Laboratory results: ChEMBL document CHEMBL3585341, “-Heteroarylalkylcarbamates as inhibitors of fatty acid amide hydrolase (FAAH)” (Medchemcomm, 2014)
Active and inactive are the calls of the source. The rule behind the calls is not given here.

How the values were obtained:
[1] = target: T1, Monoglyceride lipase (Homo sapiens) (UniProt Q99685); assay: Inhibition of human recombinant MAGL using […] 4-pyren-1-yl butanoate as substrate at 10 uM preincubated for 15 mins with substrate followed by protein addition measured after 45 mins by reverse phase HPLC with fluorescence detection method
T1 sequence (whole entry): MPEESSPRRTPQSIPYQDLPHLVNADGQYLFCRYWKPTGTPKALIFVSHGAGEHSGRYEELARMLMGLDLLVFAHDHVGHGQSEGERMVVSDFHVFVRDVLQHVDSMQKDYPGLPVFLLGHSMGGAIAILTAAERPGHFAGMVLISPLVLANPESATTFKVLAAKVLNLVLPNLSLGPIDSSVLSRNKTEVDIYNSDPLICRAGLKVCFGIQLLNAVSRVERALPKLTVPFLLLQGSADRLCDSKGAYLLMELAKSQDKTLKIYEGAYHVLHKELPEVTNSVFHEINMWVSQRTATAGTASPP

Sus scrofa = organism: Sus scrofa; assay: Inhibition of porcine platelet cPLA2alpha using co-vesicles consisting 1-stearoyl-2-arachidonoyl-sn-glycero-3-phosphocholine and 1,2-dioleoyl-sn-glycerol as substrate assessed as arachidonic acid release at 10 uM after 60 mins by reverse phase HPLC with UV-detection method
[2] = target: T2, Fatty-acid amide hydrolase 1 (Rattus norvegicus, UniProt P97612); assay: (§1) Inhibition of Sprague-Dawley rat brain microsomal FAAH using N-(2-hydroxyethyl)-4-pyren-1-ylbutanamide as substrate assessed as 4-pyren-1-ylbutanoic acid release preincubated for 10 mins with substrate followed by protein addition measured after 60 mins by reverse phase HPLC with fluorescence detection method
T2 sequence (P97612 whole entry): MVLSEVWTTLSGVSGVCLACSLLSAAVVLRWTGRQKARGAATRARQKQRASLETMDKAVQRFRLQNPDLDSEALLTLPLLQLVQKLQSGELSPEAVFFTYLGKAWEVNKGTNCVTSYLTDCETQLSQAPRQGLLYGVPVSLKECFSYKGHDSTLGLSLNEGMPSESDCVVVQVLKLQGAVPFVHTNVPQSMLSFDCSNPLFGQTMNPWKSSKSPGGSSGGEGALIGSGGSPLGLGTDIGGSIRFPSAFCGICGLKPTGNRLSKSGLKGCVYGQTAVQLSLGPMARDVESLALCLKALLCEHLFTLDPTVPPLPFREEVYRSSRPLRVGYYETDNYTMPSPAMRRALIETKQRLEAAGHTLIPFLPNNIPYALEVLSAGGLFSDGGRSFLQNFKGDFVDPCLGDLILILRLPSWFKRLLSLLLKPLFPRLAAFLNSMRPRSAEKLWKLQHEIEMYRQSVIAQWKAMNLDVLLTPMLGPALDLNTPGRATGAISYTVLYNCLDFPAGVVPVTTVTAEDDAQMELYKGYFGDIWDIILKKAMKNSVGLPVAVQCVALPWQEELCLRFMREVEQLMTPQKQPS

[3] = target: T3, Fatty-acid amide hydrolase 1 (Rattus norvegicus) (UniProt P97612); assay: as §1, with “release at 10 uM” for “release”
T3 sequence (whole entry): T2 sequence (P97612 whole entry)

[4] = Metabolic stability in rat liver S9 fractions assessed as remaining compound after 30 mins by reverse phase HPLC with UV-detection method in presence of NADPH; type: ADME, subcellular, Liver S9 fraction; details: read-out: Stability
[5] = Metabolic stability in porcine plasma assessed as remaining compound at […] after 30 mins by reverse phase HPLC with UV-detection method; type: ADME, cell-free, Sus scrofa; details: pig, read-out: Stability

Row | SMILES | inhibition (Sus scrofa) | IC50 [2] [nM] | further results
1 | O=C(NCCCCCCCCn1ccc2ccccc21)Oc1ccccc1 | inactive | 240 | inhibition [1]: inactive
2 | O=C(NCCCCn1ccc2ccccc21)Oc1ccccc1 | inactive | 960 | inhibition [1]: inactive
3 | Cc1c(C#N)c(-c2ccccc2)c(-c2ccccc2)n1CCCCCCNC(=O)Oc1ccccc1 | – | 8700 | –
4 | O=C(NCCCCCCn1cnc2ccccc21)Oc1ccccc1 | – | 290 | –
5 | O=C(NCCCCCn1ccc2ccccc21)Oc1ccccc1 | inactive | 94 | inhibition [1]: inactive
6 | O=C(NCCCCCCn1c(-c2ccccc2)cc2ccccc21)Oc1ccccc1 | – | 520 | –
7 | O=C(NCCCCCCn1nnc2ccccc21)Oc1ccccc1 | – | 810 | –
8 | Cc1cc(-c2ccccc2)c(-c2ccccc2)n1CCCCNC(=O)Oc1ccccc1 | – | 6200 | –
9 | Cc1ccc(-c2ccccc2)n1CCCCCCNC(=O)Oc1ccccc1 | – | 310 | –
10 | O=C(NCCCCCCCn1ccc2ccccc21)Oc1ccccc1 | inactive | 90 | inhibition [1]: inactive
11 | Cc1cc(-c2ccccc2)c(-c2ccccc2)n1CCNC(=O)Oc1ccccc1 | – | – | inhibition [3]: inactive
12 | O=C(NCCCCCn1ccc2ccccc21)Oc1cccnc1 | inactive | 3.6 | remaining at 0.5 h [4]: 43%; remaining at 0.5 h [5]: 0%
13 | NC(=O)c1cccc(-c2cccc(OC(=O)NC3CCCCC3)c2)c1 [URB-597] | inactive | – | remaining at 0.5 h [4]: 13%; remaining at 0.5 h [5]: 76%
14 | O=C(NCCCCCCn1ccc2ccccc21)Oc1ccccc1 | inactive | 250 | inhibition [1]: inactive
15 | COC(=O)c1c(-c2ccccc2)c(-c2ccccc2)n(CCCCCCNC(=O)Oc2ccccc2)c1C | – | > 10000 | inhibition [3]: 21%
16 | Cc1cc(-c2ccccc2)c(-c2ccccc2)n1CCCCCCNC(=O)Oc1ccccc1 | – | 2600 | –
17 | Cc1c(-c2ccccc2)cc(-c2ccccc2)n1CCCCCCNC(=O)Oc1ccccc1 | – | 460 | –
18 | O=C(NCCCCCCn1ccc2ccccc21)Oc1cccnc1 | inactive | 5.2 | remaining at 0.5 h [4]: 47%; remaining at 0.5 h [5]: 0%
19 | O=C(NCCCCCCn1ncc2ccccc21)Oc1ccccc1 | – | 920 | –
20 | Cc1nc(-c2ccccc2)c(-c2ccccc2)n1CCCCCCNC(=O)Oc1ccccc1 | – | 350 | –
21 | CC(=O)c1c(-c2ccccc2)c(-c2ccccc2)n(CCCCCCNC(=O)Oc2ccccc2)c1C | – | > 10000 | inhibition [3]: 33%
22 | O=C(NCCCCCCn1c(-c2ccccc2)c(-c2ccccc2)c2ccccc21)Oc1ccccc1 | – | 4700 | –
23 | O=C(NCCCCCCn1cc(-c2ccccc2)c2ccccc21)Oc1ccccc1 | – | 4900 | –
